Measured values taken from patent publication US9955691B2, “Macrocyclic picolinamides as fungicides” (DOW AGROSCIENCES LLC, priority 2014, dated 2018).
Where two headings read alike, the source gives them in different places.

Tests used:
Puccinia triticina = assay: Fungicidal activity: Wheat Brown Rust (PUCCRT); format: in vivo; settings: for pest or weed control at 121.5 g/ha: Low Volume (121.5 g/H); for pest or weed control at 100 µg/mL: High Volume (100 ppm)
Description: (§1) Technical grades of materials were dissolved in acetone, which were then mixed with nine volumes of water containing 110 ppm Triton X-100. The fungicide solutions were applied onto wheat seedlings using an automated booth sprayer to run-off. All sprayed plants were allowed to air dry prior to further handling. All fungicides were evaluated using the aforementioned method for their activity vs. all target diseases, unless stated otherwise. Wheat leaf blotch and brown rust activity were also evaluated using track spray applications, in which case the fungicides were formulated as EC formulations, containing 0.1% Trycol 5941 in the spray solutions. Wheat plants (variety Yuma) were grown from seed in a greenhouse in 50% mineral soil/50% soil-less Metro mix until the first leaf was fully emerged, with 7-10 seedlings per pot. These plants were inoculated with an aqueous spore suspension of Septoria tritici either prior to or after fungicide treatments. After inoculation the plants were kept in 100% relative humidity (one day in a dark dew chamber followed by two to three days in a lighted dew chamber at 20° C.) to permit spores to germinate and infect the leaf. The plants were then transferred to a greenhouse set at 20° C. for disease to develop. When disease symptoms were fully expressed on the 1st leaves of untreated plants, infection levels were assessed on a scale of 0 to 100 percent disease severity. Percent disease control was calculated using the ratio of disease severity on treated plants relative to untreated plants. Evaluation of Fungicidal Activity: Wheat Brown Rust (Puccinia triticina; Synonym: Puccinia recondite f. Sp. Tritici; Bayer Code PUCCRT) Wheat plants (variety Yuma) were grown from seed in a greenhouse in 50% mineral soil/50% soil-less Metro mix until the first leaf was fully emerged, with 7-10 seedlings per pot. These plants were inoculated with an aqueous spore suspension of Puccinia triticina either prior to or after fungicide treatments. After inoculation the plants were kept in a dark dew room at 22° C. with 100% relative humidity overnight to permit spores to germinate and infect the leaf. The plants were then transferred to a greenhouse set at 24° C. for disease to develop. Fungicide formulation, application and disease assessment followed the procedures as described in the Example A.

[1] = test system: Mycosphaerella graminicola; Anamorph: Septoria tritici; assay: Fungicidal activity: Leaf Blotch of Wheat (SEPTTR); format: in vivo; settings: Zymoseptoria tritici, wheat leaf blotch; for pest or weed control at 121.5 g/ha: Low Volume (121.5 g/H); for pest or weed control at 100 µg/mL: High Volume (100 ppm)
Description: as §1, with “Evaluation of Fungicidal Activity: Leaf Blotch of Wheat (Mycosphaerella graminicola; Anamorph: Septoria tritici; Bayer Code […]) Technical” for “Technical”, “plants.” for “plants. Evaluation of Fungicidal Activity: Wheat Brown Rust (Puccinia triticina; Synonym: Puccinia recondite f. Sp. Tritici; Bayer Code PUCCRT) Wheat plants (variety Yuma) were grown from seed in a greenhouse in 50% mineral soil/50% soil-less Metro mix until the first leaf was fully emerged, with 7-10 seedlings per pot. These plants were inoculated with an aqueous spore suspension of Puccinia triticina either prior to or after fungicide treatments. After inoculation the plants were kept in a dark dew room at 22° C. with 100% relative humidity overnight to permit spores to germinate and infect the leaf. The plants were then transferred to a greenhouse set at 24° C. for disease to develop. Fungicide formulation, application and disease assessment followed the procedures as described in the Example A.”

[2] = 24 h, 1 Day Protectant, read-out: PUCCRT 1 DP disease control
[3] = 72 h, 3 Day Curative, read-out: PUCCRT 3 DC disease control
[4] = 24 h, 1 Day Protectant, read-out: SEPTTR 1 DP disease control
[5] = 72 h, 3 Day Curative, read-out: SEPTTR 3 DC disease control

COc1ccnc(C(=O)N[C@H]2COC[C@H](CCCc3ccccc3)[C@@H](Cc3ccc(OC(F)(F)F)cc3)[C@H](C)OC2=O)c1OCOC(C)=O [compound 76]
> 70%: pest or weed control at 121.5 g/ha (Puccinia triticina; [2]) | pest or weed control at 121.5 g/ha [1, 4] | pest or weed control at 121.5 g/ha [1, 5]
< 70%: pest or weed control at 121.5 g/ha (Puccinia triticina; [3])

CCC[C@H]1COC[C@H](NC(=O)c2nccc(OC)c2OCOC(C)=O)C(=O)O[C@@H](C)[C@@H]1Cc1ccccc1 [compound 23]
> 70%: pest or weed control at 121.5 g/ha (Puccinia triticina; [2]) | pest or weed control at 121.5 g/ha (Puccinia triticina; [3]) | pest or weed control at 121.5 g/ha [1, 4] | pest or weed control at 121.5 g/ha [1, 5]

COc1ccnc(C(=O)N[C@H]2COC[C@H](Cc3ccc(Cl)cc3)[C@@H](CC(C)C)[C@H](C)OC2=O)c1O [compound 145]
> 70%: pest or weed control at 100 µg/mL (Puccinia triticina; [2]) | pest or weed control at 100 µg/mL (Puccinia triticina; [3]) | pest or weed control at 100 µg/mL [1, 4] | pest or weed control at 100 µg/mL [1, 5]

COc1ccnc(C(=O)N[C@H]2COC[C@H](Cc3ccc(C(F)(F)F)cc3)[C@@H](Cc3ccccc3)[C@H](C)OC2=O)c1OCOC(C)=O [compound 56]
< 70%: pest or weed control at 121.5 g/ha (Puccinia triticina; [3]) | pest or weed control at 121.5 g/ha [1, 5]
> 70%: pest or weed control at 121.5 g/ha (Puccinia triticina; [2]) | pest or weed control at 121.5 g/ha [1, 4]

COc1ccnc(C(=O)N[C@H]2COC[C@@H]3CCCC[C@H]3[C@@H](C)OC2=O)c1OCOC(C)=O [compound 5]
< 70%: pest or weed control at 100 µg/mL (Puccinia triticina; [2]) | pest or weed control at 100 µg/mL [1, 4] | pest or weed control at 100 µg/mL [1, 5]

COc1ccnc(C(=O)N[C@H]2COC[C@H](CCCc3ccccc3)[C@@H](CC(C)C)[C@H](C)OC2=O)c1O [compound 144]
> 70%: pest or weed control at 100 µg/mL (Puccinia triticina; [2]) | pest or weed control at 100 µg/mL (Puccinia triticina; [3]) | pest or weed control at 100 µg/mL [1, 4] | pest or weed control at 100 µg/mL [1, 5]

COc1ccnc(C(=O)N[C@H]2COC[C@H](Cc3ccc(C(F)(F)F)cc3)[C@@H](Cc3ccc(OC(F)(F)F)cc3)[C@H](C)OC2=O)c1O [compound 138]
< 70%: pest or weed control at 100 µg/mL (Puccinia triticina; [2]) | pest or weed control at 100 µg/mL (Puccinia triticina; [3]) | pest or weed control at 100 µg/mL [1, 4] | pest or weed control at 100 µg/mL [1, 5]

CCC[C@H]1COC[C@H](NC(=O)c2nccc(OC)c2OCOC(=O)C(C)C)C(=O)O[C@@H](C)[C@@H]1c1ccccc1 [compound 99]
> 70%: pest or weed control at 121.5 g/ha (Puccinia triticina; [2]) | pest or weed control at 121.5 g/ha (Puccinia triticina; [3]) | pest or weed control at 121.5 g/ha [1, 4] | pest or weed control at 121.5 g/ha [1, 5]

COc1ccnc(C(=O)N[C@H]2COC[C@H](CCC(C)C)[C@@H](C3CCCC3)[C@H](C)OC2=O)c1OCOC(=O)C(C)C [compound 94, ((2-(((3S,7R,8R,9S)-8-cyclopentyl-7-isopentyl-9-methyl-2-oxo-1,5-dioxonan-3-yl)carbamoyl)-4-methoxypyridin-3-yl)oxy)methyl isobutyrate]
< 70%: pest or weed control at 121.5 g/ha (Puccinia triticina; [3])
> 70%: pest or weed control at 121.5 g/ha (Puccinia triticina; [2]) | pest or weed control at 121.5 g/ha [1, 4] | pest or weed control at 121.5 g/ha [1, 5]

COc1ccnc(C(=O)N[C@H]2COC[C@H](Cc3ccccc3)[C@@H](Cc3ccc(OC(F)(F)F)cc3)[C@H](C)OC2=O)c1OCOC(C)=O [compound 49]
> 70%: pest or weed control at 121.5 g/ha (Puccinia triticina; [2]) | pest or weed control at 121.5 g/ha [1, 4]
< 70%: pest or weed control at 121.5 g/ha (Puccinia triticina; [3]) | pest or weed control at 121.5 g/ha [1, 5]

CCCC[C@@H]1[C@@H](Cc2ccccc2)COC[C@H](NC(=O)c2nccc(OC)c2OCOC(C)=O)C(=O)O[C@H]1C [compound 14]
< 70%: pest or weed control at 100 µg/mL (Puccinia triticina; [2]) | pest or weed control at 100 µg/mL (Puccinia triticina; [3]) | pest or weed control at 100 µg/mL [1, 4] | pest or weed control at 100 µg/mL [1, 5]

C=C(C)COC[C@@H]1[C@@H](Cc2ccccc2)COC[C@H](NC(=O)c2nccc(OC)c2O)C(=O)O[C@H]1C [compound 120]
< 70%: pest or weed control at 100 µg/mL (Puccinia triticina; [2]) | pest or weed control at 100 µg/mL (Puccinia triticina; [3]) | pest or weed control at 100 µg/mL [1, 4] | pest or weed control at 100 µg/mL [1, 5]

COc1ccnc(C(=O)N[C@H]2COC[C@H](Cc3ccc(C(F)(F)F)cc3)[C@@H](Cc3ccc(F)cc3)[C@H](C)OC2=O)c1OCOC(C)=O [compound 78]
< 70%: pest or weed control at 121.5 g/ha (Puccinia triticina; [2]) | pest or weed control at 121.5 g/ha (Puccinia triticina; [3]) | pest or weed control at 121.5 g/ha [1, 4] | pest or weed control at 121.5 g/ha [1, 5]

COc1ccnc(C(=O)N[C@H]2COC[C@H](Cc3ccccc3)[C@@H](Cc3ccc(F)cc3)[C@H](C)OC2=O)c1O [compound 143]
> 70%: pest or weed control at 100 µg/mL (Puccinia triticina; [2]) | pest or weed control at 100 µg/mL [1, 4]
< 70%: pest or weed control at 100 µg/mL (Puccinia triticina; [3]) | pest or weed control at 100 µg/mL [1, 5]

CCOCC(=O)OCOc1c(OC)ccnc1C(=O)N[C@H]1COC[C@H](Cc2ccccc2)[C@@H](c2ccccc2)[C@H](C)OC1=O [compound 51]
> 70%: pest or weed control at 121.5 g/ha (Puccinia triticina; [2]) | pest or weed control at 121.5 g/ha [1, 4]
< 70%: pest or weed control at 121.5 g/ha (Puccinia triticina; [3]) | pest or weed control at 121.5 g/ha [1, 5]

CCOCC(=O)OCOc1c(OC)ccnc1C(=O)N[C@H]1COC[C@H](CC2CC2)[C@@H](c2ccccc2)[C@H](C)OC1=O [compound 103]
> 70%: pest or weed control at 121.5 g/ha (Puccinia triticina; [2]) | pest or weed control at 121.5 g/ha (Puccinia triticina; [3]) | pest or weed control at 121.5 g/ha [1, 4] | pest or weed control at 121.5 g/ha [1, 5]

COc1ccnc(C(=O)N[C@H]2COC[C@H](CCCc3ccccc3)[C@@H](Cc3ccc(OC(F)(F)F)cc3)[C@H](C)OC2=O)c1OC(C)=O [compound 81]
< 70%: pest or weed control at 121.5 g/ha (Puccinia triticina; [2]) | pest or weed control at 121.5 g/ha (Puccinia triticina; [3]) | pest or weed control at 121.5 g/ha [1, 4] | pest or weed control at 121.5 g/ha [1, 5]

CCCC[C@@H]1[C@@H](Cc2ccc(C(F)(F)F)cc2)COC[C@H](NC(=O)c2nccc(OC)c2O)C(=O)O[C@H]1C [compound 123]
< 70%: pest or weed control at 100 µg/mL (Puccinia triticina; [2]) | pest or weed control at 100 µg/mL (Puccinia triticina; [3]) | pest or weed control at 100 µg/mL [1, 4] | pest or weed control at 100 µg/mL [1, 5]

COc1ccnc(C(=O)N[C@H]2COC[C@H](CCCc3ccccc3)[C@@H](Cc3ccc(OC(F)(F)F)cc3)[C@H](C)OC2=O)c1O [compound 146]
< 70%: pest or weed control at 100 µg/mL (Puccinia triticina; [2]) | pest or weed control at 100 µg/mL (Puccinia triticina; [3]) | pest or weed control at 100 µg/mL [1, 4] | pest or weed control at 100 µg/mL [1, 5]

COc1ccnc(C(=O)N[C@H]2COC[C@H](Cc3ccc(Cl)cc3)[C@@H](Cc3ccccc3)[C@H](C)OC2=O)c1OCOC(C)=O [compound 47]
> 70%: pest or weed control at 121.5 g/ha (Puccinia triticina; [2]) | pest or weed control at 121.5 g/ha (Puccinia triticina; [3]) | pest or weed control at 121.5 g/ha [1, 4] | pest or weed control at 121.5 g/ha [1, 5]

COc1ccnc(C(=O)N[C@H]2COC[C@H](CC3CC3)[C@@H](Cc3ccc(F)cc3)[C@H](C)OC2=O)c1OCOC(C)=O [compound 104]
> 70%: pest or weed control at 121.5 g/ha (Puccinia triticina; [2]) | pest or weed control at 121.5 g/ha (Puccinia triticina; [3]) | pest or weed control at 121.5 g/ha [1, 4] | pest or weed control at 121.5 g/ha [1, 5]

CCCC[C@@H]1[C@@H](Cc2ccccc2)COC[C@H](NC(=O)c2nccc(OC)c2OC(C)=O)C(=O)O[C@H]1C [compound 15]
> 70%: pest or weed control at 100 µg/mL (Puccinia triticina; [2]) | pest or weed control at 121.5 g/ha (Puccinia triticina; [2]) | pest or weed control at 100 µg/mL (Puccinia triticina; [3]) | pest or weed control at 121.5 g/ha (Puccinia triticina; [3]) | pest or weed control at 100 µg/mL [1, 4] | pest or weed control at 121.5 g/ha [1, 4] | pest or weed control at 100 µg/mL [1, 5] | pest or weed control at 121.5 g/ha [1, 5]

CCC[C@H]1COC[C@H](NC(=O)c2nccc(OC)c2OC(C)=O)C(=O)O[C@@H](C)[C@@H]1c1ccccc1 [compound 98]
> 70%: pest or weed control at 121.5 g/ha (Puccinia triticina; [2]) | pest or weed control at 121.5 g/ha (Puccinia triticina; [3]) | pest or weed control at 121.5 g/ha [1, 4] | pest or weed control at 121.5 g/ha [1, 5]
